Test results as given in ChEMBL document CHEMBL1201862, “PubChem BioAssay data set” (2004).
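Values below derive from 48-hour exposures of cells grown in 96-well plates, with endpoints linearly interpolated between the two concentrations bracketing the appropriate inhibition level. GI50 = concentration required for 50% inhibition of growth.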 Calls of active or inactive are those of the source. Cut-off read from the data, not from the text of the source: active = GI50 up to about 1.1 µM and inactive = higher.

What was measured:
Assay in all cases: inhibition of tumour cell growth, NCI panel, 48 h
786-0 = test system: 786-0
A549 = test system: A549
COLO 205 = test system: COLO 205
EKVX = test system: EKVX
IGROV-1 = test system: IGROV-1
LOX IMVI = test system: LOX IMVI
MCF7 = test system: MCF7
MDA-MB-435 = test system: MDA-MB-435
NCI-H522 = test system: NCI-H522
NCI/ADR-RES = test system: NCI/ADR-RES
OVCAR-3 = test system: OVCAR-3
RPMI-8226 = test system: RPMI-8226
SF-268 = test system: SF-268
SN12C = test system: SN12C
SNB-19 = test system: SNB-19
SR = test system: SR
TK-10 = test system: TK-10
UO-31 = test system: UO-31
NCI-H226 = test system: NCI-H226
HCC 2998 = test system: HCC 2998

SMILES | GI50 (786-0) | GI50 (A549) | GI50 (COLO 205) | GI50 (EKVX) | GI50 (IGROV-1) | GI50 (LOX IMVI) | GI50 (MCF7) | GI50 (MDA-MB-435) | GI50 (NCI-H522) | GI50 (NCI/ADR-RES) | GI50 (OVCAR-3) | GI50 (RPMI-8226) | GI50 (SF-268) | GI50 (SN12C) | GI50 (SNB-19) | GI50 (SR) | GI50 (TK-10) | GI50 (UO-31) | GI50 (NCI-H226) | GI50 (HCC 2998)
c1ccc(NCCSc2nc3ccccc3s2)cc1 | 37.6 µM (inactive) | 37.7 µM (inactive) | 22.4 µM (inactive) | 29.5 µM (inactive) | > 100 µM (inactive) | 45.5 µM (inactive) | 25.8 µM (inactive) | 43.3 µM (inactive) | 37.2 µM (inactive) | 35.9 µM (inactive) | 88.3 µM (inactive) | 26.5 µM (inactive) | > 100 µM (inactive) | 46.1 µM (inactive) | > 100 µM (inactive) | 39.7 µM (inactive) | 23.6 µM (inactive) | 35 µM (inactive) | – | –
O=C(O)Cc1ccc([N+](=O)[O-])cc1[N+](=O)[O-] | > 100 µM (inactive) | > 100 µM (inactive) | > 100 µM (inactive) | > 100 µM (inactive) | > 100 µM (inactive) | > 100 µM (inactive) | > 100 µM (inactive) | > 100 µM (inactive) | > 100 µM (inactive) | > 100 µM (inactive) | > 100 µM (inactive) | > 100 µM (inactive) | > 100 µM (inactive) | > 100 µM (inactive) | > 100 µM (inactive) | – | > 100 µM (inactive) | > 100 µM (inactive) | > 100 µM (inactive) | –
Oc1ccc2ccccc2c1NCn1nc(CCCCCCCCc2nn(CNc3c(O)ccc4ccccc34)c(=S)o2)oc1=S | > 100 µM (inactive) | > 100 µM (inactive) | > 100 µM (inactive) | > 100 µM (inactive) | 6.7 µM (inactive) | – | > 100 µM (inactive) | 38.7 µM (inactive) | 35.1 µM (inactive) | > 100 µM (inactive) | – | 39.6 µM (inactive) | > 100 µM (inactive) | > 100 µM (inactive) | > 100 µM (inactive) | – | > 100 µM (inactive) | > 100 µM (inactive) | > 100 µM (inactive) | > 100 µM (inactive)
CC(=O)c1cccc(Nc2nc3ccc(Cl)cc3c3[nH]c4ccccc4c23)c1 | 1.85 µM (inactive) | 2.24 µM (inactive) | 2.07 µM (inactive) | 3.54 µM (inactive) | 4.16 µM (inactive) | – | 0.434 µM (active) | 7.26 µM (inactive) | 2.8 µM (inactive) | 4.38 µM (inactive) | 0.045 µM (active) | 6.95 µM (inactive) | 3.99 µM (inactive) | 13.1 µM (inactive) | 10.5 µM (inactive) | – | 4.81 µM (inactive) | 6.07 µM (inactive) | – | –
CC1=CC2C(O1)C1C(=O)C=CC(=O)C1=CC2[N+](=O)[O-] (centres undefined) | 12.3 µM (inactive) | 19.4 µM (inactive) | 5.73 µM (inactive) | 14.6 µM (inactive) | 17.9 µM (inactive) | 16.6 µM (inactive) | 6.75 µM (inactive) | 12.2 µM (inactive) | 1.71 µM (inactive) | 25.5 µM (inactive) | 16 µM (inactive) | 9.33 µM (inactive) | 15 µM (inactive) | 18.1 µM (inactive) | 34.6 µM (inactive) | – | 16.1 µM (inactive) | 5.22 µM (inactive) | > 100 µM (inactive) | > 43.7 µM (inactive)
CN(C)CCNc1nc2ccccc2c2c1C(=O)c1ccccc1-2 | 0.132 µM (active) | 0.0581 µM (active) | 0.303 µM (active) | 0.361 µM (active) | 0.0942 µM (active) | 0.147 µM (active) | 0.0508 µM (active) | 0.288 µM (active) | 0.211 µM (active) | 0.267 µM (active) | 0.556 µM (active) | 0.123 µM (active) | 0.279 µM (active) | 0.0565 µM (active) | 0.47 µM (active) | – | 0.513 µM (active) | 0.15 µM (active) | 0.205 µM (active) | 0.134 µM (active)
CCOC(=O)/C(=N\Nc1ccc(-n2c(C)nc3ccccc3c2=O)cc1)C(C)=O | > 100 µM (inactive) | 49.9 µM (inactive) | 39.9 µM (inactive) | 25.6 µM (inactive) | 22.9 µM (inactive) | 32.1 µM (inactive) | 37.7 µM (inactive) | 17.5 µM (inactive) | – | 18.1 µM (inactive) | 21.7 µM (inactive) | 11.6 µM (inactive) | 25.8 µM (inactive) | > 100 µM (inactive) | > 100 µM (inactive) | 33.3 µM (inactive) | 20.9 µM (inactive) | 29.1 µM (inactive) | 18.7 µM (inactive) | –
CN(C(=O)Cc1cccc(N=C=S)c1)[C@H]1CCCC[C@@H]1N1CCCC1 | 15.1 µM (inactive) | 16.4 µM (inactive) | 11.8 µM (inactive) | 18.1 µM (inactive) | 13.9 µM (inactive) | 14.5 µM (inactive) | 13 µM (inactive) | 13.9 µM (inactive) | 12.9 µM (inactive) | 24.8 µM (inactive) | 14.1 µM (inactive) | 10.9 µM (inactive) | 20 µM (inactive) | 15.2 µM (inactive) | 20.6 µM (inactive) | 6.73 µM (inactive) | 11.9 µM (inactive) | 14.7 µM (inactive) | – | –
CC(=O)OC1C(Oc2c(C)cc3c(c2O)[C@@H](C)CC[C@@H]3[C@@H](C)CCC=C(C)C)OCC(O)C1O (some centres undefined) | 18.4 µM (inactive) | 14.8 µM (inactive) | 16.6 µM (inactive) | – | 19.1 µM (inactive) | 18.2 µM (inactive) | 20.9 µM (inactive) | 14.6 µM (inactive) | 21.2 µM (inactive) | 21.1 µM (inactive) | 15.7 µM (inactive) | – | 18.2 µM (inactive) | 17.5 µM (inactive) | 19.6 µM (inactive) | 22.9 µM (inactive) | – | 17.3 µM (inactive) | 17.6 µM (inactive) | –
CCON1CC(C(=O)OC)=C(O)C1=O | > 100 µM (inactive) | > 100 µM (inactive) | > 100 µM (inactive) | > 100 µM (inactive) | > 100 µM (inactive) | – | > 100 µM (inactive) | > 100 µM (inactive) | > 100 µM (inactive) | > 100 µM (inactive) | > 100 µM (inactive) | > 100 µM (inactive) | > 100 µM (inactive) | – | > 100 µM (inactive) | – | > 100 µM (inactive) | > 100 µM (inactive) | – | > 100 µM (inactive)
COc1ccccc1C(=O)c1c(N2CCCCC2)c(=O)c1=O | > 100 µM (inactive) | > 100 µM (inactive) | > 100 µM (inactive) | > 100 µM (inactive) | > 100 µM (inactive) | > 100 µM (inactive) | > 100 µM (inactive) | > 100 µM (inactive) | 59.3 µM (inactive) | > 100 µM (inactive) | > 100 µM (inactive) | 92.7 µM (inactive) | > 100 µM (inactive) | > 100 µM (inactive) | > 100 µM (inactive) | – | > 100 µM (inactive) | > 100 µM (inactive) | > 100 µM (inactive) | > 100 µM (inactive)
CCCCN1C(=O)N(c2ccc(OCC)cc2)C2N(CCCC)C1C(C)(C)C2(C)C (centres undefined) | 21.5 µM (inactive) | 56.4 µM (inactive) | 22.5 µM (inactive) | 19.7 µM (inactive) | 33.6 µM (inactive) | 7.71 µM (inactive) | 15.3 µM (inactive) | 20.2 µM (inactive) | 44.1 µM (inactive) | 23.5 µM (inactive) | 15.7 µM (inactive) | 14.9 µM (inactive) | 21.9 µM (inactive) | 30.3 µM (inactive) | 35.6 µM (inactive) | – | 22.5 µM (inactive) | 27.1 µM (inactive) | 20.2 µM (inactive) | 51.3 µM (inactive)
CC(=O)c1ccc2c3c1O[C@H]1c4[nH]c5ccccc5c4C[C@@]4(O)[C@@H](C2)N(CC2CC2)CC[C@]314 | 15 µM (inactive) | 1.15 µM (inactive) | 14.9 µM (inactive) | 20.2 µM (inactive) | 13.6 µM (inactive) | 16.9 µM (inactive) | 16.7 µM (inactive) | 18.6 µM (inactive) | 19.1 µM (inactive) | 8.67 µM (inactive) | 11.4 µM (inactive) | 18.3 µM (inactive) | 13.1 µM (inactive) | 19.1 µM (inactive) | 0.573 µM (active) | – | 18.2 µM (inactive) | 15.3 µM (inactive) | 17.1 µM (inactive) | –
CC1=NN(c2nc(N)nc(CO)n2)C(C)(C)C1 | > 100 µM (inactive) | > 100 µM (inactive) | > 100 µM (inactive) | > 100 µM (inactive) | > 100 µM (inactive) | > 100 µM (inactive) | > 100 µM (inactive) | > 100 µM (inactive) | > 100 µM (inactive) | > 100 µM (inactive) | > 100 µM (inactive) | > 100 µM (inactive) | > 100 µM (inactive) | > 100 µM (inactive) | > 100 µM (inactive) | – | > 100 µM (inactive) | > 100 µM (inactive) | > 100 µM (inactive) | > 100 µM (inactive)
N=C(N)SCCSC(=N)N | > 100 µM (inactive) | > 100 µM (inactive) | > 100 µM (inactive) | 47 µM (inactive) | > 100 µM (inactive) | > 100 µM (inactive) | > 100 µM (inactive) | > 100 µM (inactive) | > 100 µM (inactive) | > 100 µM (inactive) | > 100 µM (inactive) | > 100 µM (inactive) | > 100 µM (inactive) | > 100 µM (inactive) | > 100 µM (inactive) | – | > 100 µM (inactive) | > 100 µM (inactive) | > 100 µM (inactive) | > 100 µM (inactive)
